US11021475B2, “Amide-substituted heterocyclic compounds useful as modulators of IL-12, IL-23 and/or IFN alpha responses” (Bristol-Myers Squibb Company, priority 2012, dated 2021)

Experiments:
[1] = biological target: His-tagged protein corresponding to amino acids 575-869 of human Tyk2 (Homo sapiens (Human), UniProt P29597); assay: Probe displacement assay (scintillation proximity, radiolabeled probe); type: binding; settings: 2.5 nM Tyk2 (575-869), 40 nM [3H] probe, 30 minutes at room temperature
Description: The probe displacement assay is conducted as follows: In a […], test compounds along with recombinantly expressed His-tagged protein corresponding to amino acids 575-869 of human Tyk2 (sequence shown below) at 2.5 nM, 40 nM ((R)—N-(1-(3-(8-methyl-5-(methylamino)-8H-imidazo[4,5-d]thiazolo[5,4-b]pyridin-2-yl)phenyl)ethyl)-2-([^3H]methylsulfonyl)benzamide) (preparation described below) and 80 μg/mL Copper His-Tag scintillation proximity assay beads (Perkin Elmer, Catalog #RPNQ0095) in 50 mM HEPES, pH 7.5, containing 100 μg/mL bovine serum albumin and 5% DMSO were incubated for 30 minutes at room temperature.
Protein Sequence of recombinant Hig-tagged Tyk2 (575-869):
The preparation of radiolabeled probe, (R)—N-(1-(3-(8-methyl-5-(methylamino)-8H-imidazo[4,5-d]thiazolo[5,4-b]pyridin-2-yl)phenyl)ethyl)-2-([^3H]methylsulfonyl)benzamide, was performed as described below.

[2] = tested on: IL-23 stimulated Kit225 T cells (STAT-dependent luciferase reporter); assay: Kit225 T cell assay, IL-23-stimulated STAT-dependent luciferase reporter; type: cell-based, human; settings: 20 ng/mL human recombinant IL-23, 5-6 hours; read-out: IL-23 Kit225 Reporter (IC50)
How it was run: (§1)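 Kit225 T cells carrying a stable STAT-dependent luciferase reporter, stimulated 5-6 h with 20 ng/mL human IL-23 or 200 U/mL human IFNα. Luminescence read out; % inhibition derived against unstimulated (100%) and no-inhibitor (0%) controls.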

[3] = tested on: IFNα stimulated Kit225 T cells (STAT-dependent luciferase reporter); assay: Kit225 T cell assay, IFNα-stimulated STAT-dependent luciferase reporter; type: cell-based, human; settings: 200 U/mL human recombinant IFNα, 5-6 hours; read-out: IFNα Kit225 Reporter (IC50)
How it was run: as §1

Chain of His-tagged protein corresponding to amino acids 575-869 of human Tyk2 (P29597 other isoform, or with tags, fused parts or gaps): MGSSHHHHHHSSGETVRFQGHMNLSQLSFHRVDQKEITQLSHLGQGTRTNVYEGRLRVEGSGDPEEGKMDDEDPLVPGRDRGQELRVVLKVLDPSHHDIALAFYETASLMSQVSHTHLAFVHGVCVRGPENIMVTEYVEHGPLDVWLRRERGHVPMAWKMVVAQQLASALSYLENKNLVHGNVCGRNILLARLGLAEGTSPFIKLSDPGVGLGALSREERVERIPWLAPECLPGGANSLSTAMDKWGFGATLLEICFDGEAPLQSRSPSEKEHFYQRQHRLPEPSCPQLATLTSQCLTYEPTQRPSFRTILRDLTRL

SMILES: CNC(=O)c1nnc(Nc2ccncn2)cc1Nc1cccc(-c2ncn(C)n2)c1OC [Example 94]
- EC50 [1]: 1.72 nM
- IC50 [2]: 30 nM
- IC50 [3]: 8.59 nM

SMILES: CNC(=O)c1nnc(Nc2cc(COC)ccn2)cc1Nc1ccccc1S(C)(=O)=O [Example 51]
- EC50 [1]: 7.19 nM
- IC50 [2]: 40 nM
- IC50 [3]: 20 nM

SMILES: CNC(=O)c1nnc(NC(=O)C2CC2)cc1Nc1cccc(-c2nnn(C)n2)c1OC [Example 146]
- EC50 [1]: 1.7 nM
- IC50 [2]: 10 nM
- IC50 [3]: 5.33 nM

SMILES: CNC(=O)c1nnc(Nc2ccccn2)cc1Nc1cccc(-c2ncn(C)n2)c1OC [Example 76]
- EC50 [1]: 6.17 nM
- IC50 [2]: 1.99 nM
- IC50 [3]: 3.49 nM

SMILES: CNC(=O)c1nnc(NC(=O)C2CC2)cc1Nc1cccc(-c2ccc(C)nn2)c1OC [Example 69]
- EC50 [1]: 70 nM
- IC50 [2]: 380 nM
- IC50 [3]: 160 nM

SMILES: CNC(=O)c1nnc(NC(=O)C2CC2)cc1Nc1ccccc1OC [Example 125]
- EC50 [1]: 110 nM
- IC50 [2]: 170 nM
- IC50 [3]: 430 nM

SMILES: CNC(=O)c1nnc(Nc2ccccn2)cc1Nc1ccccc1S(C)(=O)=O [Example 16]
- EC50 [1]: 6.57 nM
- IC50 [2]: 40 nM
- IC50 [3]: 20 nM

SMILES: CNC(=O)c1nnc(NC(=O)C2CC2)cc1Nc1cccc(-c2cnc(C)s2)c1OC [Example 160]
- EC50 [1]: 70 nM
- IC50 [2]: 410 nM
- IC50 [3]: 310 nM

SMILES: CNC(=O)c1nnc(Nc2cc(NC(=O)C3CC3)nc(C)n2)cc1Nc1cccc(-c2ncn(C)n2)c1OC [Example 134]
- EC50 [1]: 5.64 nM
- IC50 [2]: 30 nM
- IC50 [3]: 10 nM

SMILES: CNC(=O)c1nnc(Nc2cc(C)nc(C)n2)cc1Nc1cccc(-c2nc(C)n(C)n2)c1OC [Example 183]
- EC50 [1]: 5.72 nM
- IC50 [2]: 30 nM
- IC50 [3]: 3.67 nM

SMILES: CNC(=O)c1nnc(Nc2cc(C)c(F)cn2)cc1Nc1cccc(-c2n[nH]c(C)n2)c1OC [Example 142]
- EC50 [1]: 6.95 nM
- IC50 [2]: 6.59 nM
- IC50 [3]: 4.3 nM

SMILES: CNC(=O)c1nnc(Nc2cc(C)n(C)n2)cc1Nc1cccc(-c2cnn(C)c2)c1OC [Example 85]
- EC50 [1]: 7.36 nM
- IC50 [2]: 170 nM
- IC50 [3]: 50 nM

SMILES: CNC(=O)c1nnc(NC(=O)C2CC2)cc1Nc1cccc(-c2cc(C)no2)c1OC [Example 194]
- EC50 [1]: 80 nM
- IC50 [2]: 630 nM
- IC50 [3]: 410 nM

SMILES: CNC(=O)c1nnc(Nc2cc(C)nc(COC)n2)cc1Nc1cccc(-c2ncn(C)n2)c1OC [Example 114]
- EC50 [1]: 1.89 nM
- IC50 [2]: 8.29 nM
- IC50 [3]: 3.77 nM

SMILES: CNC(=O)c1nnc(Nc2ccc(CO)cn2)cc1Nc1cccc(-c2ncn(C)n2)c1OC [Example 102]
- EC50 [1]: 1.59 nM
- IC50 [2]: 40 nM
- IC50 [3]: 30 nM

SMILES: CS(=O)(=O)c1ccccc1Nc1cc(Nc2ccc(F)cn2)nnc1C(=O)NC1CC1 [Example 5]
- EC50 [1]: 410 nM
- IC50 [2]: 12500 nM
- IC50 [3]: 6360 nM

SMILES: CNC(=O)c1nnc(Nc2ccccn2)cc1Nc1cccc(-c2nc(C)cs2)c1OC [Example 73]
- EC50 [1]: 5.21 nM
- IC50 [2]: 80 nM
- IC50 [3]: 50 nM

SMILES: CNC(=O)c1nnc(Nc2cc(C)nc(C)n2)cc1Nc1cccc(-c2ncn(C)n2)c1OC [Example 108]
- EC50 [1]: 1.46 nM
- IC50 [2]: 8.49 nM
- IC50 [3]: 3.54 nM

SMILES: CNC(=O)c1nnc(Nc2cc(C(C)O)ccn2)cc1Nc1cccc(-c2ncn(C)n2)c1OC (stereo not drawn) [Example 84]
- EC50 [1]: 1.28 nM
- IC50 [2]: 20 nM
- IC50 [3]: 9.39 nM

SMILES: CCNC(=O)c1nnc(Nc2ccc(F)cn2)cc1Nc1ccccc1S(C)(=O)=O [Example 4]
- EC50 [1]: 130 nM
- IC50 [2]: 2300 nM
- IC50 [3]: 1150 nM

SMILES: CNC(=O)c1nnc(Nc2ccccn2)cc1Nc1cccc(-c2nnc(C)s2)c1OC [Example 155]
- EC50 [1]: 7.13 nM
- IC50 [2]: 30 nM
- IC50 [3]: 30 nM

SMILES: CNC(=O)c1nnc(Nc2ccccn2)cc1Nc1cccc(-c2nnc(C)o2)c1OC [Example 151]
- EC50 [1]: 7.22 nM
- IC50 [2]: 20 nM
- IC50 [3]: 20 nM

SMILES: CNC(=O)c1nnc(Nc2ccccn2)cc1Nc1cccc(-c2nnn(C)n2)c1OC [Example 147]
- EC50 [1]: 0.877 nM
- IC50 [2]: 1.01 nM
- IC50 [3]: 4.42 nM

SMILES: CNC(=O)c1nnc(NC(=O)C2CC2)cc1Nc1cccc(-c2nnc(C)s2)c1OC [Example 154]
- EC50 [1]: 90 nM
- IC50 [2]: 590 nM
- IC50 [3]: 430 nM

SMILES: CNC(=O)c1nnc(NC(=O)C2CC2)cc1Nc1cccc(-c2ncn(CC(F)F)n2)c1OC [Example 176]
- EC50 [1]: 6.35 nM
- IC50 [2]: 40 nM
- IC50 [3]: 20 nM

SMILES: CNC(=O)c1nnc(NC(=O)C2CC2)cc1Nc1cccc(-c2cnn(CCF)c2)c1OC [Example 186]
- EC50 [1]: 60 nM
- IC50 [2]: 170 nM
- IC50 [3]: 80 nM

SMILES: CNC(=O)c1nnc(Nc2cnccn2)cc1Nc1cccc(-c2ncccn2)c1OC [Example 112]
- EC50 [1]: 1.94 nM
- IC50 [2]: 7.49 nM
- IC50 [3]: 3.72 nM
